According to PubChem BioAssay (NCI):
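Each compound was tested at five concentrations against cells in 96-well plates for 48 hours. GI50 marks 50% less growth. At the TGI there is no net growth.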

Key:
Assay in all cases: NCI anticancer screen, dose series, 48 h
[1] = system: NCI/ADR-RES ovarian
[2] = system: HOP-62 NSCLC
[3] = system: IGROV1 ovarian
[4] = system: SNB-19 CNS
[5] = system: HL-60(TB) leukemia
[6] = system: U251 CNS
[7] = system: DU-145 prostate
[8] = system: SF-268 CNS
[9] = system: A549 NSCLC
[10] = system: OVCAR-4 ovarian
[11] = system: EKVX NSCLC
[12] = system: MALME-3M melanoma
[13] = system: SNB-75 CNS

CCOC(=O)C1=C(C)N(Cc2ccccc2)C2(O)C(OC)CC(=O)C3C(=O)N(c4ccccc4)C(=O)C132 (stereo not given)
TGI [1]: > 100 µM
TGI [2]: > 100 µM
TGI [3]: 37.6 µM
TGI [4]: 37.6 µM
TGI [5]: > 100 µM
TGI [6]: > 100 µM
TGI [7]: 15.1 µM
TGI [8]: > 100 µM
TGI [9]: > 100 µM
TGI [10]: 18.4 µM
TGI [11]: 60 µM
TGI [12]: 36.7 µM

COC(=O)C(CNC(=O)/C=C/c1ccc(OC(C)=O)c(OC(C)=O)c1)NC(=O)/C=C/c1ccc(OC(C)=O)c(OC(C)=O)c1 (stereo not given)
TGI [2]: > 100 µM
TGI [3]: > 100 µM
TGI [4]: > 100 µM
TGI [6]: > 100 µM
TGI [7]: > 100 µM
TGI [8]: > 100 µM
TGI [9]: > 100 µM
TGI [10]: > 100 µM
TGI [11]: > 100 µM
TGI [12]: > 100 µM

CCOC(=O)Cc1cc(=O)[nH]c(-n2[nH]c(C)c(CCO)c2=O)n1
TGI [1]: > 100 µM
TGI [2]: > 100 µM
TGI [3]: > 100 µM
TGI [4]: > 100 µM
TGI [5]: > 100 µM
TGI [6]: > 100 µM
TGI [7]: > 100 µM
TGI [8]: > 100 µM
TGI [9]: > 100 µM
TGI [10]: > 100 µM
TGI [11]: > 100 µM
TGI [12]: > 100 µM

O=C1c2cc3ncsc3cc2C(=O)c2c(O)ccc(O)c21
TGI [1]: > 100 µM
TGI [2]: > 100 µM
TGI [3]: > 100 µM
TGI [4]: > 100 µM
TGI [6]: > 100 µM
TGI [7]: > 100 µM
TGI [8]: > 100 µM
TGI [9]: > 100 µM
TGI [10]: > 100 µM
TGI [11]: > 100 µM
TGI [13]: > 100 µM
TGI [12]: > 100 µM

O=c1onc(Nc2ccccc2)n1-c1ccccc1
TGI [1]: > 100 µM
TGI [2]: > 100 µM
TGI [3]: > 100 µM
TGI [4]: > 100 µM
TGI [5]: > 100 µM
TGI [6]: > 100 µM
TGI [9]: > 100 µM
TGI [10]: > 100 µM
TGI [11]: > 100 µM
TGI [13]: > 100 µM
TGI [12]: > 100 µM

COc1cc(-c2nc(SC)nc3c2CCc2ccccc2-3)cc(OC)c1OC
TGI [1]: > 100 µM
TGI [2]: > 100 µM
TGI [3]: > 100 µM
TGI [4]: > 100 µM
TGI [5]: > 100 µM
TGI [6]: > 100 µM
TGI [7]: > 100 µM
TGI [8]: > 100 µM
TGI [9]: > 100 µM
TGI [10]: > 100 µM
TGI [11]: 92.8 µM
TGI [13]: > 100 µM

C=C(Cl)CN1c2ccccc2C=Cc2ccccc21
TGI [1]: > 100 µM
TGI [2]: 89.9 µM
TGI [3]: > 100 µM
TGI [4]: > 100 µM
TGI [6]: 30.9 µM
TGI [7]: > 100 µM
TGI [8]: > 100 µM
TGI [9]: > 100 µM
TGI [10]: 97.9 µM
TGI [11]: 49.9 µM
TGI [13]: 61.9 µM
TGI [12]: 77.9 µM

CC1C(c2ccccc2)NC(c2ccccc2)CC1(N)C#N (stereo not given)
TGI [1]: > 100 µM
TGI [2]: > 100 µM
TGI [3]: > 100 µM
TGI [4]: > 100 µM
TGI [5]: > 100 µM
TGI [6]: > 100 µM
TGI [7]: > 100 µM
TGI [8]: > 100 µM
TGI [9]: > 100 µM
TGI [10]: > 100 µM
TGI [11]: > 100 µM
TGI [13]: > 100 µM

N#Cc1c(N2CCCC2)nsc1Nc1ccccc1
TGI [1]: > 100 µM
TGI [3]: > 100 µM
TGI [4]: > 100 µM
TGI [5]: > 100 µM
TGI [7]: > 100 µM
TGI [8]: > 100 µM
TGI [9]: > 100 µM
TGI [10]: > 100 µM
TGI [11]: > 100 µM
TGI [13]: > 100 µM
TGI [12]: > 100 µM

Cc1cc(OCc2nnc3n2N=C(c2cc(F)c(Cl)cc2Cl)/C(=C/c2ccc(-c4ccc(Cl)cc4)o2)S3)ccc1Cl
TGI [1]: > 50 µM
TGI [2]: > 50 µM
TGI [3]: > 50 µM
TGI [4]: > 50 µM
TGI [5]: > 50 µM
TGI [6]: > 50 µM
TGI [7]: > 50 µM
TGI [8]: > 50 µM
TGI [9]: > 50 µM
TGI [11]: > 50 µM
TGI [12]: > 50 µM

Cc1ccsc1/C=N/Nc1cc(C)c2ccccc2n1
TGI [1]: 31 µM
TGI [2]: 78.8 µM
TGI [3]: 6.33 µM
TGI [4]: 32.8 µM
TGI [5]: 34.4 µM
TGI [6]: 31.4 µM
TGI [7]: 32 µM
TGI [8]: 42.2 µM
TGI [9]: 52.3 µM
TGI [10]: 72.2 µM
TGI [11]: 28.8 µM
TGI [13]: 31.4 µM

CCCCCCCCCCCCCCCCCCNc1nc(=O)n(C2CC(OP(=O)(O)OCC3OC(n4cc(F)c(=O)[nH]c4=O)CC3O)C(CO)O2)cc1F (stereo not given)
TGI [1]: > 100 µM
TGI [2]: > 100 µM
TGI [3]: > 100 µM
TGI [4]: 30.3 µM
TGI [5]: 20.3 µM
TGI [6]: 65.2 µM
TGI [7]: > 100 µM
TGI [8]: 37.1 µM
TGI [9]: > 100 µM
TGI [10]: > 100 µM
TGI [11]: > 100 µM
TGI [13]: > 100 µM

Cc1oc2nc(N(C)C)n3cnnc3c2c1C
TGI [1]: > 100 µM
TGI [2]: > 100 µM
TGI [3]: > 100 µM
TGI [4]: > 100 µM
TGI [5]: > 100 µM
TGI [6]: > 100 µM
TGI [7]: > 100 µM
TGI [8]: > 100 µM
TGI [9]: > 100 µM
TGI [10]: > 100 µM
TGI [11]: > 100 µM
TGI [13]: > 100 µM

Cc1ccc(S(=O)(=O)N/N=C\c2c3ccccc3[n+](C)c3ccccc23)cc1
TGI [2]: > 100 µM
TGI [3]: > 100 µM
TGI [4]: 75.1 µM
TGI [5]: 59.6 µM
TGI [6]: 71.3 µM
TGI [8]: > 100 µM
TGI [9]: > 100 µM
TGI [10]: > 100 µM
TGI [11]: > 100 µM
TGI [13]: 46 µM
TGI [12]: 95.3 µM

CC(C)(C)CC(C)(C)NCC(O)COc1ccc(C(C)(C)c2ccc(OCC(O)CNC(C)(C)CC(C)(C)C)cc2)cc1 (stereo not given)
GI50 [1]: 1.41 µM
TGI [1]: 2.84 µM
TGI [2]: 3.19 µM
TGI [3]: 3.23 µM
TGI [4]: 3.01 µM
TGI [6]: 2.2 µM
GI50 [7]: 1.39 µM
TGI [7]: 2.75 µM
TGI [8]: 3.06 µM
TGI [9]: 3.02 µM
TGI [10]: 3.23 µM
TGI [11]: 3.08 µM
TGI [13]: 2.79 µM
TGI [12]: 2.96 µM

CCCCOc1ccc(S(=O)(=O)/N=C(\NO)Nc2ccc(Cl)cc2)cc1
TGI [1]: 33.1 µM
TGI [2]: 32.4 µM
TGI [4]: 30.5 µM
TGI [6]: 30.8 µM
TGI [7]: 30.1 µM
TGI [8]: 33.3 µM
TGI [9]: 30.5 µM
TGI [10]: 23.6 µM
TGI [11]: 29.5 µM
TGI [12]: 32.7 µM

OC(CCl)CN1CC[N+]2(CC1)CC[N+]1(CCN(CC(O)CCl)CC1)CC2 (stereo not given)
TGI [3]: > 50 µM
TGI [4]: > 50 µM
TGI [5]: > 50 µM
TGI [6]: > 50 µM
TGI [8]: > 50 µM
TGI [9]: > 50 µM
TGI [10]: > 50 µM
TGI [11]: > 50 µM
TGI [13]: > 50 µM
TGI [12]: > 50 µM

O=C(NNc1nc(-c2ccccc2)cs1)Nc1ccccc1
TGI [1]: 45.8 µM
TGI [2]: 56.8 µM
TGI [3]: > 100 µM
TGI [4]: > 100 µM
TGI [6]: 58.1 µM
TGI [7]: 89.1 µM
TGI [8]: 80.9 µM
TGI [9]: 48 µM
TGI [10]: 88.5 µM
TGI [11]: > 100 µM
TGI [13]: 69.3 µM
TGI [12]: > 100 µM

CSc1c(C)n([O-])c2cc(Cl)c(Cl)cc2[n+]1=O
TGI [1]: 39.3 µM
TGI [2]: > 100 µM
TGI [3]: 30.8 µM
TGI [4]: > 100 µM
TGI [6]: 46.3 µM
TGI [7]: 30.9 µM
TGI [8]: 36.6 µM
TGI [9]: > 100 µM
TGI [10]: 30.6 µM
TGI [11]: 31 µM
TGI [13]: > 69.4 µM
TGI [12]: 33 µM
